Earlier results as cited in patent publication US20040192601A1, “Lipid binding molecules and methods of use” (priority 2002, published 2004).

Test system: PI3K
Conditions: W7 used at 100 μM; stated as a property of the calmodulin inhibitor

## NCCCCCCNS(=O)(=O)c1cccc2c(Cl)cccc12 [W7]
  Inhibition of PI3K activity: does not inhibit PI3K activity
